Consider 56 compounds from the RepoRT retention time repository.

The nature of this series: Agilent InfinityLab Poroshell 120 SB-C18, 100 × 2.1 mm, 2.7 µm, 40 °C, 0.2 mL/min, estimated dead time 1.1 min; A: water + 0.1% formic acid; B: acetonitrile; gradient (min/%B) 0/2 15/95 16/95. The following applies: stereoisomer not certain.
As for `O=C(CO)C(O)C(O)C(O)COP(=O)(O)O` (stereo unspecified), the LC retention time was 1.34 min.

As to `CC(O)(CC(=O)O)CC(=O)SCCNC(=O)CCNC(=O)C(O)C(C)(C)COP(=O)(O)OP(=O)(O)OCC1OC(n2cnc3c(N)ncnc32)C(O)C1OP(=O)(O)O` (stereo unspecified), the LC retention time was 3.78 min.

As for `O=C(O)CCC(=O)O`, the LC retention time was 6.53 min.

`O=C(O)C1CC(O)C=N1` (stereo unspecified): the LC retention time is 2.51 min.

Regarding `CCCCCC(O)C=CC1C(O)CC(=O)C1CC=CCCCC(=O)O` (stereo unspecified), the LC retention time is 13.3 min.

As to `O=C(O)CC(O)C(=O)O` (stereo unspecified), the LC retention time is 4.45 min.

In the case of `CCC(C)C(N)C(=O)O` (stereo unspecified), the LC retention time was 2.94 min.

In the case of `CC(C)CCC=O`, the LC retention time is 1.62 min.

Consider `COc1cc(C(O)C(=O)O)ccc1O` (stereo unspecified), for which the LC retention time is 1.37 min.

Turning to `CC=CC(=O)O`, the LC retention time was 8.13 min.

On to `O=c1ccn(C2OC(COP(=O)(O)OP(=O)(O)OP(=O)(O)O)C(O)C2O)c(=O)[nH]1` (stereo unspecified), for which the LC retention time is 10.1 min.

Turning to `C=C(CC)C(=O)O`, the LC retention time was 1.62 min.

`CC12CCC3C(CCC4=CC(=O)CCC43CO)C1CCC2=O` (stereo unspecified): the LC retention time is 6.37 min.

As for `Nc1nc2c(ncn2C2CC(O)C(CO)O2)c(=O)[nH]1` (stereo unspecified), the LC retention time is 5.19 min.

For the compound `Nc1ccn(C2CC(O)C(CO)O2)c(=O)n1` (stereo unspecified), the LC retention time was 4.1 min.

`CC(=O)NC1C(O)OC(COP(=O)(O)O)C(O)C1O` (stereo unspecified): the LC retention time was 1.37 min.

Turning to `Nc1ncnc2c1ncn2C1OC(CO)C(O)C1O` (stereo unspecified), the LC retention time was 4.62 min.

With `CCCCCCCCCC(O)CC(=O)O` (stereo unspecified), the LC retention time was 6.12 min.

With `Nc1ccn(C2CC(O)C(COP(=O)(O)OP(=O)(O)OP(=O)(O)O)O2)c(=O)n1` (stereo unspecified), the LC retention time was 4.62 min.

On to `O=c1[nH]cnc2nc[nH]c12`, for which the LC retention time is 2.51 min.

With `NC(=O)C1=CN(C2OC(COP(=O)(O)OP(=O)(O)OCC3OC(n4cnc5c(N)ncnc54)C(OP(=O)(O)O)C3O)C(O)C2O)C=CC1` (stereo unspecified), the LC retention time is 8.58 min.

Consider `CC(O)C=O` (stereo unspecified), for which the LC retention time was 1.48 min.

`NCCCCNCCCN`: the LC retention time was 1.45 min.

For the compound `O=C(O)C(=O)Cc1ccccc1`, the LC retention time is 1.62 min.

Consider `CC(=O)SCCNC(=O)CCNC(=O)C(O)C(C)(C)COP(=O)(O)OP(=O)(O)OCC1OC(n2cnc3c(N)ncnc32)C(O)C1OP(=O)(O)O` (stereo unspecified), for which the LC retention time is 11.7 min.

`O=c1ccn(C2OC(COP(=O)(O)OP(=O)(O)O)C(O)C2O)c(=O)[nH]1` (stereo unspecified): the LC retention time is 13 min.

`Nc1ncnc2c1ncn2C1OC(COP(=O)(O)OP(=O)(O)O)C(O)C1O` (stereo unspecified): the LC retention time is 2.87 min.

As to `NC(CC(=O)O)C(=O)O` (stereo unspecified), the LC retention time was 1.34 min.

With `O=P(O)(O)OCC1OC(O)C(O)C(O)C1O` (stereo unspecified), the LC retention time is 1.37 min.

Consider `CCCCCCCCCCCCCC=CC(O)C(N)CO` (stereo unspecified), for which the LC retention time was 15.1 min.

With `OCC(O)CO`, the LC retention time was 3.76 min.

On to `CC(=O)NC1C(OP(=O)(O)OP(=O)(O)OCC2OC(n3ccc(=O)[nH]c3=O)C(O)C2O)OC(CO)C(O)C1O` (stereo unspecified), for which the LC retention time was 5.47 min.

As to `OCC1OC(O)C(O)C(O)C1O` (stereo unspecified), the LC retention time was 12 min.

`NC(CCC(=O)NC(CSSCC(NC(=O)CCC(N)C(=O)O)C(=O)NCC(=O)O)C(=O)NCC(=O)O)C(=O)O` (stereo unspecified): the LC retention time is 2.87 min.

`CCCCCC=CCC=CC=CC=CC(SCC(N)C(=O)NCC(=O)O)C(O)CCCC(=O)O` (stereo unspecified): the LC retention time was 8.91 min.

For `NCC(=O)O`, the LC retention time is 2.87 min.

As for `CC(O)C(=O)O` (stereo unspecified), the LC retention time was 3.37 min.

With `CCCCCCCCCCCCCCCC(=O)OC(CC(=O)[O-])C[N+](C)(C)C` (stereo unspecified), the LC retention time is 15.6 min.

With `CC(CCCC(CO)COS(=O)(=O)O)C1CCC2C3C(O)CC4CC(O)CCC4(C)C3CC(O)C12C` (stereo unspecified), the LC retention time was 14.7 min.

Take `CC(=O)NC1C(O)OC(CO)C(O)C1O` (stereo unspecified): the LC retention time is 2.94 min.

With `NC(=O)c1ncn(C2OC(COP(=O)(O)O)C(O)C2O)c1NC=O` (stereo unspecified), the LC retention time was 1.34 min.

Consider `OCC1OC(OC2(CO)OC(CO)C(O)C2O)C(O)C(O)C1O` (stereo unspecified), for which the LC retention time was 4.1 min.

`O=C(O)c1cc(=O)[nH]c(=O)n1C1OC(COP(=O)(O)O)C(O)C1O` (stereo unspecified): the LC retention time was 8.32 min.

On to `CCCCCCCCCC=CC(=O)O`, for which the LC retention time is 12.7 min.

In the case of `CCCCCCCCCCCCCC=CC(O)C(COC1OC(CO)C(OC2OC(CO)C(O)C(O)C2O)C(O)C1O)NC(=O)CCCCCCCCCCCCCCCCCCCCC` (stereo unspecified), the LC retention time is 2.36 min.

Consider `CC(C)CC(N)C(=O)O` (stereo unspecified), for which the LC retention time is 6.01 min.

Turning to `NC(=O)c1ncn(C2OC(COP(=O)(O)O)C(O)C2O)c1N` (stereo unspecified), the LC retention time was 8.32 min.

As to `NC(CCC(=O)NC(CS)C(=O)NCC(=O)O)C(=O)O` (stereo unspecified), the LC retention time was 2.1 min.

Take `NC(=O)c1cccnc1`: the LC retention time was 2.46 min.

With `NC1C(O)OC(CO)C(O)C1O` (stereo unspecified), the LC retention time was 1.62 min.

As for `CC(=O)C(=O)O`, the LC retention time was 2.51 min.

As for `Cc1cn(C2CC(O)C(CO)O2)c(=O)[nH]c1=O` (stereo unspecified), the LC retention time is 14.7 min.

`NCC(=O)NC1OC(COP(=O)(O)O)C(O)C1O` (stereo unspecified): the LC retention time is 13.5 min.

As for `O=C(O)C1CCCN1` (stereo unspecified), the LC retention time was 1.41 min.

As to `Nc1nc2c(ncn2C2CC(O)C(COP(=O)(O)OP(=O)(O)O)O2)c(=O)[nH]1` (stereo unspecified), the LC retention time is 11.7 min.

For `CCCC(O)CC(=O)O` (stereo unspecified), the LC retention time is 12.4 min.
